Tests used:
Assay in all cases: viability inhibition at highest dose (% inhibition); higher = more growth inhibition
T-47D Tam1 = conditions: 4-OH-tamoxifen in medium 1 µM; 72 h
Method in brief: (§1)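 CellTiter-Glo viability was the readout, taken on a PHERAstar and normalised to vehicle-only and positive controls. It was measured after breast cancer cell lines and their resistant derivatives spent 72 h at 37 °C in 384-well plates containing library drugs at five concentrations spanning a 10 000-fold range, with 1 μM of the selecting drug in the medium of resistant lines. From logistic dose–response fits in the Breeze pipeline came drug sensitivity score, relative IC50 (curve midpoint) and top-dose inhibition.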

BT-474 Tam1 = conditions: 4-OH-tamoxifen in medium 1 µM; 72 h
Method in brief: as §1

MCF-7 = conditions: 72 h
Method in brief: as §1

T-47D Tam2 = conditions: 4-OH-tamoxifen in medium 1 µM; 72 h
Method in brief: as §1

ZR-75-1 Tam2 = conditions: 4-OH-tamoxifen in medium 1 µM; 72 h
Method in brief: as §1

BT-474 = conditions: 72 h
Method in brief: as §1

ZR-75-1 Tam1 = conditions: 4-OH-tamoxifen in medium 1 µM; 72 h
Method in brief: as §1

T-47D = conditions: 72 h
Method in brief: as §1

MCF-7 Tam1 = conditions: 4-OH-tamoxifen in medium 1 µM; 72 h
Method in brief: as §1

BT-474 Tam2 = conditions: 4-OH-tamoxifen in medium 1 µM; 72 h
Method in brief: as §1

ZR-75-1 = conditions: 72 h
Method in brief: as §1

Row | Structure (SMILES) | viability inhibition at highest dose (T-47D Tam1) | viability inhibition at highest dose (BT-474 Tam1) | viability inhibition at highest dose (MCF-7; 4-OH-tamoxifen in medium 0 µM) | viability inhibition at highest dose (MCF-7; 4-OH-tamoxifen in medium 1 µM) | viability inhibition at highest dose (T-47D Tam2) | viability inhibition at highest dose (ZR-75-1 Tam2) | viability inhibition at highest dose (BT-474; 4-OH-tamoxifen in medium 0 µM) | viability inhibition at highest dose (BT-474; 4-OH-tamoxifen in medium 1 µM) | viability inhibition at highest dose (ZR-75-1 Tam1) | viability inhibition at highest dose (T-47D; 4-OH-tamoxifen in medium 0 µM) | viability inhibition at highest dose (T-47D; 4-OH-tamoxifen in medium 1 µM) | viability inhibition at highest dose (MCF-7 Tam1) | viability inhibition at highest dose (BT-474 Tam2) | viability inhibition at highest dose (ZR-75-1; 4-OH-tamoxifen in medium 0 µM) | viability inhibition at highest dose (ZR-75-1; 4-OH-tamoxifen in medium 1 µM)
1 | COc1cc2nccc(Oc3ccc(NC(=O)Nc4cc(C)on4)c(Cl)c3)c2cc1OC [Tivozanib  (AV-951)] (drug 10000 nM) | 23.7 | 71.8 | 24.5 | 23.7 | 22.1 | 11.2 | 31.9 | 75.6 | 3.78 | 22.3 | 19.7 | 13.2 | 43.4 | 13.6 | 4.79
2 | C[C@@H]1CCN(C(=O)CC#N)C[C@@H]1N(C)c1ncnc2[nH]ccc12 [Tofacitinib (Tasocitinib)] (drug 5000 nM) | -1.37 | -11.1 | -15.3 | 12.9 | -13.3 | 10.5 | 0.0745 | -12.8 | 4.16 | 3.16 | -4.5 | 1.13 | -10.5 | -2.74 | -1.91
3 | CC[C@@]1(O)C(=O)OCc2c1cc1n(c2=O)Cc2cc3c(CN(C)C)c(O)ccc3nc2-1 [Topotecan] (drug 1000 nM) | 46 | 4.54 | 11 | 23.7 | 27.9 | 48.3 | -20.8 | -23.9 | 40.6 | 52.2 | 5.37 | -1.83 | 0.0411 | 49.4 | 38.6
4 | CN(C)CCOc1ccc(/C(=C(/CCCl)c2ccccc2)c2ccccc2)cc1 [Toremifene (citrate)] (drug 10000 nM) | 45.2 | 95.2 | 19.2 | 69.3 | 62 | 25.1 | 25.6 | 82.9 | 18.3 | 9.04 | 1.56 | 35.5 | 99.1 | 3.59 | 24.4
5 | CC(C)C[C@@H](C(=O)N[C@H](C(=O)OC1CCCC1)c1ccccc1)[C@H](O)C(=O)NO [Tosedostat (CHR 2797)] (drug 10000 nM) | 46.1 | 34.7 | 40.5 | 38.1 | 48.2 | 37 | 19 | 54.7 | 30 | 33.3 | 15.7 | 14.2 | 28.5 | 22.3 | 28.8
6 | CC1=C(/C=C/C(C)=C/C=C/C(C)=C/C(=O)O)C(C)(C)CCC1 [Tretinoin] (drug 10000 nM) | 14.5 | -5.43 | -12.3 | 14.5 | 14.5 | 4.01 | -1.01 | -18.6 | 5.21 | 3.78 | 2.8 | 15.9 | 7.81 | 0.707 | -8.55
7 | C1CN1c1nc(N2CC2)nc(N2CC2)n1 [Triethylenemelamine] (drug 10000 nM) | 19.6 | 7.12 | 1.71 | -13.7 | 13 | -10 | -11.5 | -8.95 | -3.65 | -11.6 | -10.3 | -10.7 | -2.97 | -18.1 | -2.81
8 | O=C(CCCCCCC(=O)Nc1ccc([C@H]2O[C@@H](CSc3nc(-c4ccccc4)c(-c4ccccc4)o3)C[C@@H](c3ccc(CO)cc3)O2)cc1)NO [Tubacin] (drug 10000 nM) | 45.1 | 21.5 | 55.1 | 67.2 | 39.4 | 19.2 | 28.3 | 84.7 | 32.9 | 57.8 | 90.2 | 22.1 | 33.8 | 18.1 | 24.4
9 | CN1CCc2c(c3ccccc3n2Cc2ccc(C(=O)NO)cc2)C1 [Tubastatin A] (drug 10000 nM) | 0.672 | 36.4 | 10.2 | 17.2 | 11.4 | 12.3 | 8.77 | 28.9 | 16.1 | 2.46 | 1.6 | 2.15 | 12.3 | 17.4 | 18.8
10 | CN[C@@H]1C[C@H]2O[C@@](C)([C@@H]1OC)n1c3ccccc3c3c4c(c5c6ccccc6n2c5c31)C(=O)N[C@H]4O [UCN-01] (drug 10000 nM) | 78 | 96 | 90.3 | 97.1 | 70.5 | 73.2 | 74.7 | 90.7 | 66.1 | 67.6 | 69.8 | 96 | 96.9 | 61.4 | 61.5
11 | Oc1ncc(N(CCCl)CCCl)c(O)n1 [Uracil mustard] (drug 10000 nM) | -0.922 | 6.37 | -11.6 | 11.6 | 1.54 | 2.56 | -4.25 | -3.71 | 3.73 | -4.46 | -6.35 | -4.85 | 6.63 | 0.272 | -3.68
12 | CCCC(CCC)C(=O)O [Valproic acid] (drug 10000 nM) | 1.44 | 4.24 | -31.2 | -5.39 | 24.2 | -3.03 | -9.64 | -2.48 | 3.1 | -15.5 | 12.5 | 1.78 | -2.85 | -14.3 | 1.2
13 | CCCCC(=O)OCC(=O)[C@]1(O)Cc2c(O)c3c(c(O)c2[C@@H](O[C@H]2C[C@H](NC(=O)C(F)(F)F)[C@H](O)[C@H](C)O2)C1)C(=O)c1c(OC)cccc1C3=O [Valrubicin] (drug 10000 nM) | 67.9 | 75.8 | 55 | 77 | 63.2 | 85.4 | 42.6 | 77.1 | 70.3 | 58.2 | 68.2 | 30.4 | 59.5 | 59.8 | 58.9
14 | COc1cc2/c(=N/c3ccc(Br)cc3F)nc[nH]c2cc1OCC1CCN(C)CC1 [Vandetanib  (ZD6474, Zactima)] (drug 1000 nM) | 11.5 | 22 | 15.2 | 11.9 | 20.8 | 0.544 | 2.03 | 5.94 | 4.94 | -1.36 | -3.82 | -0.506 | 15 | -14.7 | -3
15 | CCc1c(C(=O)C(N)=O)c2c(OCC(=O)O)cccc2n1Cc1ccccc1 [Varespladib] (drug 10000 nM) | -7.33 | -12.8 | 13.3 | -9.89 | -7.24 | -6.3 | 0.192 | -17.3 | -2.44 | -1.77 | -10.9 | -3.81 | -5.77 | -0.701 | -2.07
16 | Clc1ccc(Nc2nnc(Cc3ccncc3)c3ccccc23)cc1 [Vatalanib] (drug 10000 nM) | 26.3 | 10.7 | -22.9 | 8.24 | 7.23 | 6.59 | -9.23 | 0.775 | -0.807 | -9.2 | -8.84 | -1.69 | 10.3 | -6.3 | -2.47
17 | C[C@]1(c2nc3c(C(N)=O)cccc3[nH]2)CCCN1 [Veliparib  (ABT-888)] (drug 10000 nM) | 2.73 | 6.83 | 8.41 | -2.66 | 6.94 | 6.18 | -7.48 | 9.81 | 2.16 | -14.2 | -15.3 | -2.94 | -7.23 | -8.51 | 2.27
18 | CCCS(=O)(=O)Nc1ccc(F)c(C(=O)c2c[nH]c3ncc(-c4ccc(Cl)cc4)cc23)c1F [Vemurafenib (PLX4032)] (drug 10000 nM) | -8.15 | -8.2 | 7.54 | -8.65 | 21.7 | 0.975 | -0.692 | 16.2 | 8.49 | -10.9 | 17.5 | 3.76 | -15 | -0.616 | 10.2
19 | CC[C@]1(O)C[C@@H]2CN(CCc3c([nH]c4ccccc34)[C@@](C(=O)OC)(c3cc4c(cc3OC)N(C)[C@H]3[C@@](O)(C(=O)OC)[C@H](OC(C)=O)[C@]5(CC)C=CCN6CC[C@]43[C@@H]65)C2)C1 [Vinblastine] (drug 1000 nM) | 55.2 | 88 | 51.4 | 57.6 | 57.8 | 35.9 | 43.3 | 87.4 | 30.2 | 14.7 | 22.2 | 19.6 | 91.8 | 24.6 | 34.4
20 | CC[C@]1(O)C[C@H]2CN(CCc3c([nH]c4ccccc34)[C@@](C(=O)OC)(c3cc4c(cc3OC)N(C=O)[C@H]3[C@@](O)(C(=O)OC)[C@H](OC(C)=O)[C@]5(CC)C=CCN6CC[C@]43[C@@H]65)C2)C1 [Vincristine] (drug 10000 nM) | 68.8 | 93.7 | 56.6 | 54.4 | 59 | 35.9 | 47.4 | 83.8 | 29.2 | 16.5 | 31.2 | 12.1 | 84.9 | 28.7 | 28.5
21 | CCC1=C[C@@H]2CN(C1)Cc1c([nH]c3ccccc13)[C@@](C(=O)OC)(c1cc3c(cc1OC)N(C)[C@H]1[C@@](O)(C(=O)OC)[C@H](OC(C)=O)[C@]4(CC)C=CCN5CC[C@]31[C@@H]54)C2 [Vinorelbine (tartrate)] (drug 10000 nM) | 59.6 | 95.6 | 49.1 | 55.8 | 63 | 29.9 | 46.9 | 94 | 29.4 | 6.97 | 31.1 | 6.83 | 93.8 | 26.2 | 36.3
22 | CS(=O)(=O)c1ccc(C(=O)Nc2ccc(Cl)c(-c3ccccn3)c2)c(Cl)c1 [Vismodegib] (drug 10000 nM) | -0.759 | 18.7 | 8.35 | 5.18 | 3.9 | 10.7 | 2.54 | 9.28 | 5.76 | 3.38 | 6.47 | 10.9 | 6.56 | -1.58 | 4.37
23 | CC[C@@H]1C(=O)N(C)c2cnc(Nc3ccc(C(=O)N[C@H]4CC[C@H](N5CCN(CC6CC6)CC5)CC4)cc3OC)nc2N1C(C)C [Volasertib (BI 6727)] (drug 1000 nM) | 24.6 | 26 | 24.2 | 24.7 | 21.4 | 18.7 | 13.2 | 25.5 | 18.7 | 30.8 | -1.17 | 0.498 | 9.62 | 7.01 | 16.1
24 | O=C(CCCCCCC(=O)Nc1ccccc1)NO [Vorinostat] (drug 10000 nM) | 58.5 | 91.2 | 83.5 | 80.9 | 41.9 | 37.8 | 76.5 | 92.9 | 38.9 | 87.5 | 88.9 | 23.1 | 86.8 | 37.5 | 32.9
25 | Oc1nc(-c2ccc(C(F)(F)F)cc2)nc2c1CSCC2 [XAV-939] (drug 10000 nM) | 22.1 | 9.15 | 7.77 | 11.1 | -6.24 | 12.7 | 2.3 | -20.3 | 3.25 | -0.891 | 1.95 | -5.47 | 10.1 | 5.02 | 3.5
26 | COCC[n+]1c2c(n(Cc3cnccn3)c1C)C(=O)c1ccccc1C2=O [YM155] (drug 10000 nM) | 96.1 | 99.4 | 99.8 | 99.1 | 94.1 | 95.8 | 99 | 100 | 99.6 | 98.1 | 98.6 | 98.9 | 98.6 | 96 | 98

Source: the supplement of paper PMC4932681
